Experimental data reported in patent US12064426B2, “Selective inhibitors of ROCK1 and ROCK2 protein kinases and uses thereof” (GENOSCO Inc., priority 2021, dated 2024).

Columns and labels:
[1] = biological target: T1, Recombinant ROCK2 (amino acids 5-554) (Homo sapiens, UniProt O75116); test: ROCK inhibition assay, LANCE Ultra TR-FRET kinase assay (ROCK2); type: biochemical; details: 4 μM ATP, 50 nM ULight-CREBtide substrate
T1 construct: ROCK2 (amino acids 5-554); by word order, ROCK2 from SignalChem
T1 sequence (O75116 5-554): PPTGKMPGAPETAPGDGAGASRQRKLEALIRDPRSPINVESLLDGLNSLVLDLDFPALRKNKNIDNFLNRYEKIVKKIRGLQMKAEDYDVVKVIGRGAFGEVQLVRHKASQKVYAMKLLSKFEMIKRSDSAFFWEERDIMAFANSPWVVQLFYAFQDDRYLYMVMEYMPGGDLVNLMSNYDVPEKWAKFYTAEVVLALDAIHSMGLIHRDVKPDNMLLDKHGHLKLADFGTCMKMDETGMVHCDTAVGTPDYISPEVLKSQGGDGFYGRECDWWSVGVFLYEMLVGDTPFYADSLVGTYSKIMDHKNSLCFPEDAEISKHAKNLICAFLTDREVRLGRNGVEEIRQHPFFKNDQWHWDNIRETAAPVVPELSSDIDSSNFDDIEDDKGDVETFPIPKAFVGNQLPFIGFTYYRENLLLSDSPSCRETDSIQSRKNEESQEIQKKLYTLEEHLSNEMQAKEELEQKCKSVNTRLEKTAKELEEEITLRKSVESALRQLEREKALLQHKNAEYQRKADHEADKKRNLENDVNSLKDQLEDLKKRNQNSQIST
Method in brief: (§1)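 LANCE Ultra TR-FRET kinase assay with recombinant ROCK1 (aa 1-477) or ROCK2 (aa 5-554), 50 nM ULight-CREBtide and ATP at 1 μM (ROCK1) or 4 μM (ROCK2) in HEPES pH 7.5 with MgCl2, 1 h at room temperature. EDTA stop with Eu anti-phospho-CREB Ser133 antibody; 665/615 nm read gives IC50.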

[2] = test system: ROCK1/2 in A7r5 cells (pMLC2 levels); test: Inhibition of ROCK1/2 in A7r5 cells, cell-based ELISA of phospho-myosin light chain (pMLC2, Thr18/Ser19); details: Rattus norvegicus, 1.5 h, treated with test compounds for 90 minutes, read-out: pMLC2 (cellular EC50)
Description: Inhibition of ROCK1/2 in A7r5 cells was measured through cell-based ELISA assay. Rat aortic smooth muscle cell line A7r5 cells were maintained and treated in DMEM medium with 10% fetal bovine serum. Cells were seeded with 5,000 cells/well in 96 well plates for 24 hours and subsequently treated with test compounds for 90 minutes. Cells were then fixed and processed according to the In-Cell ELISA Colrimetric Detection Kit manual (Thermo Scientific). Cellular phospho-myosin light chain (pMLC2, Thr18/Ser19) levels were determined after treatment with DMSO control or a test compound using the In-Cell ELISA kit.
The resulting data was applied to the following formula ‘[1-(compound/DMSO)]×100%’ to calculate the percent inhibition rate. pMLC2 data obtained from 9 points 3-fold serial dilution of compounds were applied to the nonlinear regression curve fit function of the GraphPad Prism software to calculate the cellular EC50 values.

[3] = biological target: T2, Recombinant ROCK1 (amino acids 1-477) (Homo sapiens, UniProt Q13464); test: ROCK inhibition assay, LANCE Ultra TR-FRET kinase assay (ROCK1); type: biochemical; details: 1 μM ATP, 50 nM ULight-CREBtide substrate
T2 construct: Recombinant ROCK1 (amino acids 1-477); by word order, ROCK1 from Carna Biosciences
T2 sequence (Q13464 1-477): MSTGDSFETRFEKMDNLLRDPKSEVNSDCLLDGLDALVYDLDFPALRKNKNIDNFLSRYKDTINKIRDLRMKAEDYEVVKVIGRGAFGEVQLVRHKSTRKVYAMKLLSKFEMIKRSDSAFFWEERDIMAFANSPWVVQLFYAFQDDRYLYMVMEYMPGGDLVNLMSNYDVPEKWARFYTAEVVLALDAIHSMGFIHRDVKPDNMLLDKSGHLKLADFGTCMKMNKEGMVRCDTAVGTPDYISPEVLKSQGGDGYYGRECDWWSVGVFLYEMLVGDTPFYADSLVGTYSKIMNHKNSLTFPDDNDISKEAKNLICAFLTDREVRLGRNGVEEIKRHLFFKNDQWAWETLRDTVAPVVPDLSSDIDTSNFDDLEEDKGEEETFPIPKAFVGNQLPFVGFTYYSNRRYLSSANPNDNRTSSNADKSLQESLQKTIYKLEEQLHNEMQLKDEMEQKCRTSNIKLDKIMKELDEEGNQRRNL
Method in brief: as §1

SMILES | IC50 [1] | EC50 [2] | IC50 [3]
CNC(=O)c1cccc([C@@H](C)n2cnc3cc(-c4cn[nH]c4Cl)ccc3c2=O)c1 [Compound 466] | < 0.01 µM | < 0.1 µM | 0.011 to 0.1 µM
Cn1nccc1-c1ccc2c(=O)n(Cc3cccc(C(=O)NC4CCN(CC(F)(F)F)CC4)c3)ccc2c1 [Compound 108] | < 0.01 µM | 0.101 to 0.5 µM | 0.011 to 0.1 µM
CNC(=O)c1cccc(Cn2ccc3cc(-c4cn[nH]c4C(F)(F)F)ncc3c2=O)c1 [Compound 233] | < 0.01 µM | 0.101 to 0.5 µM | 0.011 to 0.1 µM
Cn1ccc(NC(=O)c2cccc(Cn3ccc4cc(-c5ccnc(N)c5)ccc4c3=O)c2)n1 [Compound 200] | < 0.01 µM | < 0.1 µM | 0.011 to 0.1 µM
Nc1cc(-c2ccc3c(=O)n(Cc4cccc(C(=O)NCc5ccccc5CO)c4)ccc3c2)ccn1 [Compound 184] | 0.01 to 0.1 µM | < 0.1 µM | 0.101 to 0.5 µM
Cc1nocc1-c1ccc2c(=O)n(Cc3cccc(C(=O)NC4CCOCC4)c3)ccc2c1 [Compound 77] | < 0.01 µM | 0.101 to 0.5 µM | 0.011 to 0.1 µM
[2H]C([2H])([2H])NC(=O)c1cccc(Cn2cnc3cc(-c4cn[nH]c4Cl)ccc3c2=O)c1 [Compound 405] | < 0.01 µM |  | < 0.01 µM
CNC(=O)c1cccc(C(C)n2ccc3cc(-c4cn[nH]c4C(F)(F)F)ccc3c2=O)c1 (centres unmarked) [Compound 279] | < 0.01 µM |  | 0.011 to 0.1 µM
Cn1nccc1-c1ccc2c(=O)n(Cc3cccc(C(=O)NCC4CC(O)C4)c3)ccc2c1 (centres unmarked) [Compound 167] | < 0.01 µM |  | 0.011 to 0.1 µM
O=C(NCc1ccccc1)c1cccc(Cn2ccc3cc(-c4cn[nH]c4)ccc3c2=O)c1 [Compound 30] | 0.1 to 0.5 µM |  | > 0.501 µM
CN1CCC(CNC(=O)c2cc(F)cc(Cn3ccc4cc(-c5c[nH]nc5C(F)(F)F)ccc4c3=O)c2)CC1 [Compound 134] | < 0.01 µM |  | 0.011 to 0.1 µM
Nc1cc(-c2ccc3c(=O)n(Cc4cccc(C(=O)Nc5ccno5)c4)ccc3c2)ccn1 [Compound 203] | 0.1 to 0.5 µM |  | > 0.501 µM
Cc1nocc1-c1ccc2c(=O)n(Cc3cccc(C(=O)NCCN4CCOCC4)c3)cnc2c1 [Compound 420] | < 0.01 µM |  | 0.011 to 0.1 µM
O=C(NCC1CCOCC1)c1cc(F)cc(Cn2ccc3cc(-c4c[nH]nc4C(F)(F)F)ccc3c2=O)c1 [Compound 135] | 0.01 to 0.1 µM |  | 0.101 to 0.5 µM
O=c1c2ccc(-c3c[nH]nc3C(F)(F)F)cc2ccn1Cc1cccc(O)c1 [Compound 7] | 0.01 to 0.1 µM |  | 0.101 to 0.5 µM
Cc1nocc1-c1ccc2c(=O)n(Cc3cccc(C(=O)NCc4ccc(F)nc4)c3)cc(C(C)O)c2c1 (centres unmarked) [Compound 538] | < 0.01 µM |  | < 0.01 µM
C[C@H](c1cccc(C(=O)NC2CCN(C)CC2)c1)n1cnc2cc(-c3cn[nH]c3Cl)ccc2c1=O [Compound 464] | < 0.01 µM |  | < 0.01 µM
CNC(=O)c1cccc(Cn2cc(CCN(C)C)c3cc(-c4cn[nH]c4Cl)ccc3c2=O)c1 [Compound 564] | < 0.01 µM |  | 0.011 to 0.1 µM
COc1cccc(Cn2ccc3cc(-c4conc4C)ccc3c2=O)c1 [Compound 9] | < 0.01 µM |  | 0.011 to 0.1 µM
Cn1nccc1-c1ccc2c(=O)n(Cc3cccc(C(=O)N[C@H]4C[C@H](O)C4)c3)cnc2c1 [Compound 428] | < 0.01 µM |  | 0.011 to 0.1 µM
CC(C)N1CCC(CNC(=O)c2cccc(Cn3ccc4cc(N5CCOCC5)ccc4c3=O)c2)CC1 [Compound 223] | 0.01 to 0.1 µM |  | 0.101 to 0.5 µM
CNC(=O)c1cccc(Cn2ccc3cc(-c4cn[nH]c4C(F)(F)F)cnc3c2=O)c1 [Compound 242] | 0.1 to 0.5 µM |  | > 0.501 µM
Cc1nocc1-c1ccc2c(=O)n(Cc3cc(F)cc(C(=O)Nc4ccc5c(c4)CCN(C)C5)c3)ccc2c1 [Compound 163] | < 0.01 µM |  | < 0.01 µM
CNC(=O)c1cc(F)cc([C@@H](C)n2cnc3cc(-c4cn[nH]c4C(F)F)ccc3c2=O)c1 [Compound 463] | < 0.01 µM |  | 0.011 to 0.1 µM
CC(O)c1cn(Cc2cccc(C(=O)NC3CCOCC3)c2)c(=O)c2ccc(-c3c[nH]nc3C(F)F)cc12 (centres unmarked) [Compound 536] | < 0.01 µM |  | < 0.01 µM
Cc1nocc1-c1ccc2c(=O)n(Cc3cccc(C(=O)NCC4CCN(C)CC4)c3)cnc2c1 [Compound 417] | < 0.01 µM |  | < 0.01 µM
O=C(NC1COC1)c1cc(F)cc(Cn2ccc3cc(N4CCOCC4)ccc3c2=O)c1 [Compound 208] | 0.1 to 0.5 µM |  | > 0.501 µM
Cc1nocc1-c1ccc2c(=O)n(Cc3cccc(C(=O)NCCc4cccnc4)c3)cnc2c1 [Compound 419] | < 0.01 µM |  | < 0.01 µM

SMILES | IC50 [1] | EC50 [2] | IC50 [3]
Cc1nocc1-c1ccc2c(=O)n(Cc3cc(F)cc(C(=O)Nc4nc5c(s4)CCNC5)c3)ccc2c1 [Compound 157] | < 0.01 µM |  | 0.011 to 0.1 µM
O=C(NCCN1CCOCC1)c1cc(F)cc(Cn2ccc3cc(N4CCOCC4)ccc3c2=O)c1 [Compound 229] | 0.01 to 0.1 µM |  | 0.011 to 0.1 µM
O=C(Nc1cccc(Cn2ccc3cc(-c4c[nH]nc4C(F)F)ccc3c2=O)c1)C1COC1 [Compound 343] | 0.01 to 0.1 µM |  | 0.101 to 0.5 µM
O=C(NC1CCNCC1)c1cccc(Cn2cnc3cc(-c4cn[nH]c4Cl)ccc3c2=O)c1 [Compound 409] | < 0.01 µM |  | < 0.01 µM
C[C@H](c1cccc(C(=O)N(C)Cc2ccncc2)c1)n1cnc2cc(-c3cn[nH]c3C(F)(F)F)ccc2c1=O [Compound 446] | > 0.5 µM |  | > 0.501 µM
CNC(=O)c1cccc(Cn2cc(Cl)c3cc(-c4conc4C)ccc3c2=O)c1 [Compound 310] | < 0.01 µM |  | 0.011 to 0.1 µM
COc1cc(F)cc(Cn2cnc3cc(-c4c[nH]nc4C(F)F)ccc3c2=O)c1 [Compound 360] | < 0.01 µM |  | 0.011 to 0.1 µM
Cc1nocc1-c1ccc2c(=O)n(Cc3cc(F)cc(C(=O)NC4CCOCC4)c3)ccc2c1 [Compound 148] | 0.01 to 0.1 µM |  | 0.101 to 0.5 µM
CNC(=O)c1cccc(Cn2cc(CCO)c3cc(-c4cn[nH]c4F)ccc3c2=O)c1 [Compound 555] | < 0.01 µM |  | 0.011 to 0.1 µM
O=C(N[C@H]1CC[C@H](O)CC1)c1cc(F)cc(Cn2ccc3cc(-c4c[nH]nc4C(F)(F)F)ncc3c2=O)c1 [Compound 260] | < 0.01 µM |  | 0.011 to 0.1 µM
O=C(NC1CCN(CC(F)F)CC1)c1cccc(Cn2ccc3cc(-c4c[nH]nc4C(F)(F)F)ccc3c2=O)c1 [Compound 49] | < 0.01 µM |  | 0.101 to 0.5 µM
Cn1nccc1-c1cc2ccn(Cc3cc(F)cc(C(=O)NCC4COC4)c3)c(=O)c2cn1 [Compound 269] | 0.01 to 0.1 µM |  | 0.101 to 0.5 µM
CNC(=O)c1cc(Cn2ccc3cc(-c4conc4C)ccc3c2=O)ccc1F [Compound 317] | 0.01 to 0.1 µM |  | 0.101 to 0.5 µM
Cc1nocc1-c1ccc2c(=O)n(Cc3cccc(C(=O)NCc4ccc(F)nc4)c3)ccc2c1 [Compound 76] | < 0.01 µM |  | 0.011 to 0.1 µM
Cc1nocc1-c1ccc2c(=O)n(Cc3cccc(C(=O)NCC4CCNCC4)c3)ccc2c1 [Compound 79] | < 0.01 µM |  | 0.011 to 0.1 µM
CS(=O)(=O)c1cccc(CNC(=O)c2cccc(Cn3cnc4cc(-c5cn[nH]c5C(F)F)ccc4c3=O)c2)c1 [Compound 398] | 0.01 to 0.1 µM |  | 0.101 to 0.5 µM
CNC(=O)c1cc(Cl)cc(Cn2ccc3cc(-c4cn[nH]c4C(F)(F)F)ccc3c2=O)c1 [Compound 285] | 0.01 to 0.1 µM |  | 0.101 to 0.5 µM
O=C(NCc1ccc(F)nc1)c1cccc(Cn2ccc3cc(-c4c[nH]nc4C(F)(F)F)ccc3c2=O)c1 [Compound 44] | < 0.01 µM |  | 0.011 to 0.1 µM
COc1cccc(Cn2cnc3cc(-c4ccncc4)ccc3c2=O)c1 [Compound 363] | 0.01 to 0.1 µM |  | 0.011 to 0.1 µM
CNC(=O)c1cc(F)cc(C(C)n2ccc3cc(-c4cn[nH]c4F)ccc3c2=O)c1 (centres unmarked) [Compound 298] | < 0.01 µM |  | 0.011 to 0.1 µM
Cn1nccc1-c1cc2ccn(Cc3cc(F)cc(C(=O)NCC4CCOCC4)c3)c(=O)c2cn1 [Compound 270] | 0.01 to 0.1 µM |  | 0.011 to 0.1 µM
Cc1nocc1-c1ccc2c(=O)n(Cc3cccc(C(=O)Nc4ccc5c(c4)CCNC5)c3)ccc2c1 [Compound 96] | < 0.01 µM |  | < 0.01 µM
CN1CCC(CNC(=O)c2cccc(Cn3ccc4cc(-c5c[nH]nc5C(F)(F)F)ccc4c3=O)c2)CC1 [Compound 51] | < 0.01 µM |  | < 0.01 µM
O=C(NC1CC1)c1cccc(Cn2ccc3cc(-c4c[nH]nc4C(F)(F)F)ccc3c2=O)c1 [Compound 50] | 0.01 to 0.1 µM |  | 0.101 to 0.5 µM
CNC(=O)c1cc(F)cc(C(C)n2ccc3cc(-c4conc4C)ccc3c2=O)c1 (centres unmarked) [Compound 316] | < 0.01 µM |  | 0.011 to 0.1 µM
Cn1nccc1-c1ccc2c(=O)n(Cc3cccc(C(=O)NCc4ccc(F)nc4)c3)ccc2c1 [Compound 114] | < 0.01 µM |  | 0.011 to 0.1 µM
Cc1nocc1-c1ccc2c(=O)n(Cc3cccc(C(=O)NCC4COC4)c3)cnc2c1 [Compound 415] | < 0.01 µM |  | 0.011 to 0.1 µM
